Results: ChEMBL document CHEMBL3352491, “Novel semicarbazides and ureas of primaquine with bulky aryl or hydroxyalkyl substituents: synthesis, cytostatic and antioxidative activity” (Eur J Med Chem, 2014)

Assays:
[1] = Antioxidant activity assessed as DPPH scavenging activity at 100 uM after 20 mins by spectrophotometry; assay type: physicochemical
[2] = Antioxidant activity assessed as DPPH scavenging activity at 100 uM after 60 mins by spectrophotometry; assay type: physicochemical; settings: 1 h
[3] = biological target: Lipoxygenase (Glycine max) (UniProt Q39829); assay: Inhibition of soybean LOX using sodium linoleate as substrate at 100 uM by spectrophotometry
Lipoxygenase = Lipoxygenase (Glycine max, UniProt Q39829); assay: Inhibition of soybean LOX using sodium linoleate as substrate by spectrophotometry; settings: read-out: IC50
L1210 = assay: Cytostatic activity against mouse L1210 cells assessed as growth inhibition after 3 to 4 days by MTT assay; assay type: functional, cell-based
[4] = Cytostatic activity against human Molt4/C8 cells assessed as growth inhibition after 3 to 4 days by MTT assay; assay type: functional, cell-based; settings: MOLT-4
CCRF-CEM = assay: Cytostatic activity against human CEM cells assessed as growth inhibition after 3 to 4 days by MTT assay; assay type: functional, cell-based
HeLa = assay: Cytostatic activity against human HeLa cells assessed as growth inhibition after 3 to 4 days by MTT assay; assay type: functional, cell-based
[5] = Cytostatic activity against human MIAPaCa2 cells assessed as growth inhibition after 3 to 4 days by MTT assay; assay type: functional, cell-based; settings: MIA PaCa-2
SW-620 = assay: Cytostatic activity against human SW620 cells assessed as growth inhibition after 3 to 4 days by MTT assay; assay type: functional, cell-based
MCF7 = assay: Cytostatic activity against human MCF7 cells assessed as growth inhibition after 3 to 4 days by MTT assay; assay type: functional, cell-based
[6] = Cytostatic activity against human H460 cells assessed as growth inhibition after 3 to 4 days by MTT assay; assay type: functional, cell-based; settings: NCI-H460
[7] = Antioxidant activity assessed as inhibition of lipid peroxidation at 100 uM by spectrophotometry; assay type: physicochemical

Activity [1]	Activity [2] [%]	inhibition [3] [%]	IC50 (Lipoxygenase) [µM]	IC50 (L1210) [µM]	IC50 (CCRF-CEM) [µM]	IC50 (HeLa) [µM]	IC50 (SW-620) [µM]	IC50 (MCF7) [µM]	inhibition (INH) [7] [%]	Structure (SMILES)	IC50 [4] [µM]	IC50 [5] [µM]	IC50 [6] [µM]
80%	91	84	28	–	–	–	–	–	–	CC(Cc1ccc(O)c(O)c1)C(C)Cc1ccc(O)c(O)c1 (configuration not stated) [NORDIHYDROGUAIARETIC ACID]	–	–	–
30%	55	–	70.5	8.8	5.5	6.9	3	2	77	COc1cc(NC(C)CCCNC(=O)NNC(=O)NC(c2ccccc2)c2ccc(Cl)cc2)c2ncccc2c1 (configuration not stated)	9.6	6	3
47%	64	–	60.5	6.2	7.4	18	7	2	78	COc1ccc(/C(=N/NC(=O)NNC(=O)NCCCC(C)Nc2cc(OC)cc3cccnc23)c2ccccc2)cc1 (configuration not stated)	12	13	7
Not Active	12	–	93	40	10	38	54	45	89	COc1cc(NC(C)CCCNC(=O)NCCNC(c2ccccc2)(c2ccccc2)c2ccccc2)c2ncccc2c1 (configuration not stated)	210	40	> 100
5%	14	–	60	> 250	> 250	> 250	> 100	6	98	COc1ccc(C(=NNC(=O)NCCCC(C)Nc2cc(OC)cc3cccnc23)c2ccc(OC)cc2)cc1 (configuration not stated)	> 250	> 250	> 100
